Experimental data reported in article PMC5218480 (PLoS ONE, 2017).

Tested on: MV-4-11 cells
Test: Gene expression microarray analysis (Affymetrix PrimeView) and GSEA
Type: cell-based, human
Design: RFU PODN (11730768_x_at) / Fold change /veh PODN (11730768_x_at) / RFU LINC00158 (11744669_a_at) / Fold change /veh LINC00158 (11744669_a_at) / RFU DUSP10 (11751237_a_at) / Fold change /veh DUSP10 (11751237_a_at) / RFU ID3 (11757404_x_at) / Fold change /veh ID3 (11757404_x_at) / RFU PLEKHG5 (11737974_s_at) / Fold change /veh PLEKHG5 (11737974_s_at) / RFU LRRC4B (11730491_at) / Fold change /veh LRRC4B (11730491_at) / RFU GIMAP4 (11747438_a_at) / Fold change /veh GIMAP4 (11747438_a_at) / RFU KRT8 (11758183_x_at) / Fold change /veh KRT8 (11758183_x_at) / RFU CNN1 (11734310_a_at) / Fold change /veh CNN1 (11734310_a_at) / RFU VPS37D (11726825_at) / Fold change /veh VPS37D (11726825_at) / RFU C10orf10 (11716522_x_at) / Fold change /veh C10orf10 (11716522_x_at) / RFU KIR2DL2 /// KIR2DL4 /// KIR2DL5A /// KIR2DL5B /// KIR2DS1 /// KIR2DS2 /// KIR2DS3 /// KIR2DS4 /// KIR3DL3 /// KIR3DL3 /// KIR3DS1 (11738374_at) / Fold change /veh KIR2DL2 /// KIR2DL4 /// KIR2DL5A /// KIR2DL5B /// KIR2DS1 /// KIR2DS2 /// KIR2DS3 /// KIR2DS4 /// KIR3DL3 /// KIR3DL3 /// KIR3DS1 (11738374_at) / RFU C1QL1 (11718748_at) / Fold change /veh C1QL1 (11718748_at) / RFU TMPRSS4 (11747572_a_at) / Fold change /veh TMPRSS4 (11747572_a_at) / RFU HAMP (11756126_x_at) / Fold change /veh HAMP (11756126_x_at) / RFU RNFT2 (11725882_a_at) / Fold change /veh RNFT2 (11725882_a_at) / RFU NR4A2 (11747474_a_at) / Fold change /veh NR4A2 (11747474_a_at) / RFU ABCC12 (11746883_a_at) / Fold change /veh ABCC12 (11746883_a_at) / RFU TMEM136 (11760407_x_at) / Fold change /veh TMEM136 (11760407_x_at) / RFU CLDN22 /// WWC2 (11732394_at) / Fold change /veh CLDN22 /// WWC2 (11732394_at) / RFU HLA-DPB1 (11760878_x_at) / Fold change /veh HLA-DPB1 (11760878_x_at) / RFU SPINT1 (11716480_a_at) / Fold change /veh SPINT1 (11716480_a_at) / RFU GAP43 (11754022_s_at) / Fold change /veh GAP43 (11754022_s_at) / RFU A4GNT (11735810_at) / Fold change /veh A4GNT (11735810_at) / RFU PRB3 (11715151_x_at) / Fold change /veh PRB3 (11715151_x_at) / RFU TUBB4B (11761932_at) / Fold change /veh TUBB4B (11761932_at) / RFU CAPN14 (11732068_a_at) / Fold change /veh CAPN14 (11732068_a_at) / RFU TMCC2 (11721928_a_at) / Fold change /veh TMCC2 (11721928_a_at) / RFU IRGQ (11745062_a_at) / Fold change /veh IRGQ (11745062_a_at) / RFU FAM174B (11720279_a_at) / Fold change /veh FAM174B (11720279_a_at) / RFU TMPRSS4 (11748680_a_at) / Fold change /veh TMPRSS4 (11748680_a_at) / RFU FAM212B (11763350_a_at) / Fold change /veh FAM212B (11763350_a_at) / RFU PLEKHG5 (11743358_a_at) / Fold change /veh PLEKHG5 (11743358_a_at) / RFU ZSCAN30 (11745921_a_at) / Fold change /veh ZSCAN30 (11745921_a_at) / RFU CMKLR1 (11741424_a_at) / Fold change /veh CMKLR1 (11741424_a_at) / RFU LOC101060620 /// MAPK8IP1 (11723275_at) / Fold change /veh LOC101060620 /// MAPK8IP1 (11723275_at) / RFU SPTSSB (11747773_x_at) / Fold change /veh SPTSSB (11747773_x_at) / RFU PRSS12 (11739890_at) / Fold change /veh PRSS12 (11739890_at) / RFU BIN1 (11741810_x_at) / Fold change /veh BIN1 (11741810_x_at) / RFU WNT11 (11732464_a_at) / Fold change /veh WNT11 (11732464_a_at) / RFU C10orf10 (11716521_a_at) / Fold change /veh C10orf10 (11716521_a_at) / RFU C5orf56 (11738089_at) / Fold change /veh C5orf56 (11738089_at) / RFU CYB561 (11721691_x_at) / Fold change /veh CYB561 (11721691_x_at) / RFU ANKRD19P (11752326_a_at) / Fold change /veh ANKRD19P (11752326_a_at) / RFU OR2T12 /// OR2T33 /// OR2T8 (11738714_s_at) / Fold change /veh OR2T12 /// OR2T33 /// OR2T8 (11738714_s_at) / RFU VCAN (11748164_a_at) / Fold change /veh VCAN (11748164_a_at) / RFU JSRP1 (11732532_at) / Fold change /veh JSRP1 (11732532_at) / RFU KRTAP10-11 (11738290_x_at) / Fold change /veh KRTAP10-11 (11738290_x_at) / RFU MYO3A (11730013_a_at) / Fold change /veh MYO3A (11730013_a_at) / RFU EBF3 (11725865_a_at) / Fold change /veh EBF3 (11725865_a_at) / RFU CAMK2N1 (11719241_x_at) / Fold change /veh CAMK2N1 (11719241_x_at) / RFU C5orf56 (11738088_a_at) / Fold change /veh C5orf56 (11738088_a_at) / RFU OLFML3 (11715873_a_at) / Fold change /veh OLFML3 (11715873_a_at) / RFU LOC100653217 /// NTM (11731650_a_at) / Fold change /veh LOC100653217 /// NTM (11731650_a_at) / RFU MAPK11 (11762145_a_at) / Fold change /veh MAPK11 (11762145_a_at) / RFU FIZ1 (11724087_x_at) / Fold change /veh FIZ1 (11724087_x_at) / RFU OASL (11726364_x_at) / Fold change /veh OASL (11726364_x_at) / RFU SOX15 (11748057_x_at) / Fold change /veh SOX15 (11748057_x_at) / RFU CD79A (11719716_a_at) / Fold change /veh CD79A (11719716_a_at) / RFU HIST1H1D (11736915_at) / Fold change /veh HIST1H1D (11736915_at) / RFU CASKIN2 (11723855_a_at) / Fold change /veh CASKIN2 (11723855_a_at) / RFU LOC730098 (11760151_x_at) / Fold change /veh LOC730098 (11760151_x_at) / RFU OR4N2 (11742367_at) / Fold change /veh OR4N2 (11742367_at) / RFU PRRT2 (11749266_a_at) / Fold change /veh PRRT2 (11749266_a_at) / RFU SNX32 (11753110_a_at) / Fold change /veh SNX32 (11753110_a_at) / RFU CDHR5 (11726645_a_at) / Fold change /veh CDHR5 (11726645_a_at) / RFU RCAN1 (11760418_a_at) / Fold change /veh RCAN1 (11760418_a_at) / RFU FAM167A (11723789_a_at) / Fold change /veh FAM167A (11723789_a_at) / RFU FAM26E (11764081_at) / Fold change /veh FAM26E (11764081_at) / RFU ISYNA1 (11749810_s_at) / Fold change /veh ISYNA1 (11749810_s_at) / RFU ACY1 (11761880_at) / Fold change /veh ACY1 (11761880_at) / RFU 11764098_at / Fold change /veh 11764098_at / RFU SAMD14 (11745864_x_at) / Fold change /veh SAMD14 (11745864_x_at) / RFU NPB (11741838_a_at) / Fold change /veh NPB (11741838_a_at) / RFU TMPRSS6 (11731388_a_at) / Fold change /veh TMPRSS6 (11731388_a_at) / RFU KRTAP10-2 (11738614_at) / Fold change /veh KRTAP10-2 (11738614_at) / RFU ARHGAP8 /// PRR5-ARHGAP8 (11727945_x_at) / Fold change /veh ARHGAP8 /// PRR5-ARHGAP8 (11727945_x_at) / RFU KRTAP5-7 /// NADSYN1 (11734609_at) / Fold change /veh KRTAP5-7 /// NADSYN1 (11734609_at) / RFU RASL12 (11751679_a_at) / Fold change /veh RASL12 (11751679_a_at) / RFU CDKN2B (11736163_a_at) / Fold change /veh CDKN2B (11736163_a_at) / RFU PRF1 (11729649_at) / Fold change /veh PRF1 (11729649_at) / RFU, ZNF638 /// ZNF638-IT1 / Fold change vs veh, ZNF638 /// ZNF638-IT1 / RFU, PANK3 / Fold change vs veh, PANK3 / RFU, SH3YL1 / Fold change vs veh, SH3YL1 / RFU, ZEB2 / Fold change vs veh, ZEB2 / RFU, NRIP1 / Fold change vs veh, NRIP1 / RFU, PTTG1IP / Fold change vs veh, PTTG1IP / RFU, CAPN2 / Fold change vs veh, CAPN2 / RFU, MED14 / Fold change vs veh, MED14 / RFU, SNORA58 / Fold change vs veh, SNORA58 / RFU, C1orf63 / Fold change vs veh, C1orf63 / RFU, LRRFIP1 / Fold change vs veh, LRRFIP1 / RFU, NDUFAF7 / Fold change vs veh, NDUFAF7 / RFU, SLC12A2 / Fold change vs veh, SLC12A2 / RFU, IBTK / Fold change vs veh, IBTK / RFU, ESF1 / Fold change vs veh, ESF1 / Fold change vs veh, TMEM50B / RFU, TAOK1 / Fold change vs veh, TAOK1 / RFU, ACBD3 / Fold change vs veh, ACBD3 / RFU, TMA16 / Fold change vs veh, TMA16 / RFU, RWDD3 / Fold change vs veh, RWDD3 / RFU, BCAT1 / Fold change vs veh, BCAT1 / RFU, EDEM3 / Fold change vs veh, EDEM3 / RFU, TMEM33 / Fold change vs veh, TMEM33 / RFU, WDR75 / Fold change vs veh, WDR75 / RFU, AHCTF1 / Fold change vs veh, AHCTF1 / RFU, TFRC / Fold change vs veh, TFRC / RFU, ZDHHC17 / Fold change vs veh, ZDHHC17 / RFU, NOM1 / Fold change vs veh, NOM1 / RFU, ARL8B / Fold change vs veh, ARL8B / RFU, ZBTB11 / Fold change vs veh, ZBTB11 / RFU, TAMM41 / Fold change vs veh, TAMM41 / RFU, KIAA1704 /// LOC100996395 / Fold change vs veh, KIAA1704 /// LOC100996395 / RFU, ING1 / Fold change vs veh, ING1 / RFU, TRMT61B / Fold change vs veh, TRMT61B / RFU, FUBP3 / Fold change vs veh, FUBP3 / RFU, TP53 / Fold change vs veh, TP53 / RFU, TNKS2 / Fold change vs veh, TNKS2 / RFU, ZFP14 / Fold change vs veh, ZFP14 / RFU, ACTR2 / Fold change vs veh, ACTR2 / RFU, PPP3R1 / Fold change vs veh, PPP3R1 / RFU, PIK3R1 / Fold change vs veh, PIK3R1 / RFU, HNRNPA1 / Fold change vs veh, HNRNPA1 / RFU, RNF170 / Fold change vs veh, RNF170 / RFU, ZNF28 / Fold change vs veh, ZNF28 / RFU, RNGTT / Fold change vs veh, RNGTT / RFU, OGT / Fold change vs veh, OGT / RFU, BRD1 / Fold change vs veh, BRD1 / RFU, MARS / Fold change vs veh, MARS / RFU, ZNF655 / Fold change vs veh, ZNF655 / RFU, FAHD1 / Fold change vs veh, FAHD1 / RFU, BDP1 / Fold change vs veh, BDP1 / RFU, LRRCC1 / Fold change vs veh, LRRCC1 / RFU, ARID1A / Fold change vs veh, ARID1A / RFU, ZNF146 / Fold change vs veh, ZNF146 / RFU, ZNF330 / Fold change vs veh, ZNF330 / RFU, GPN3 / Fold change vs veh, GPN3 / RFU, C9orf123 / Fold change vs veh, C9orf123 / RFU, N4BP2L2 / Fold change vs veh, N4BP2L2 / RFU, ARFIP1 / Fold change vs veh, ARFIP1 / RFU, FAM179B / Fold change vs veh, FAM179B / RFU, BCL10 / Fold change vs veh, BCL10 / RFU, UHRF1BP1L / Fold change vs veh, UHRF1BP1L / RFU, BET1 / Fold change vs veh, BET1 / RFU, CNOT2 / Fold change vs veh, CNOT2 / RFU, ZNF268 / Fold change vs veh, ZNF268 / Fold change vs veh, ZNF507 / RFU, DGCR2 / Fold change vs veh, DGCR2 / RFU, WDSUB1 / Fold change vs veh, WDSUB1 / Fold change vs veh, HSP90B1 /// MIR3652 / RFU, ADSS / Fold change vs veh, ADSS / RFU, GK / Fold change vs veh, GK / RFU, ZNF148 / Fold change vs veh, ZNF148 / RFU, TAF9 / Fold change vs veh, TAF9 / RFU, SLC1A5 / Fold change vs veh, SLC1A5 / RFU, SLMO2 / Fold change vs veh, SLMO2 / RFU, ABCC4 / Fold change vs veh, ABCC4 / RFU, LOC101060439 /// RAP1B / Fold change vs veh, LOC101060439 /// RAP1B / RFU, RFX7 / Fold change vs veh, RFX7 / RFU, GTPBP10 / Fold change vs veh, GTPBP10 / RFU, CNEP1R1 / Fold change vs veh, CNEP1R1 / RFU, BIVM-ERCC5 /// ERCC5 / Fold change vs veh, BIVM-ERCC5 /// ERCC5 / RFU, ILF3 / Fold change vs veh, ILF3 / RFU 11762660_at / Fold change /veh 11762660_at / RFU VCAN (11757783_s_at) / Fold change /veh VCAN (11757783_s_at) / RFU DDX43 (11728927_at) / Fold change /veh DDX43 (11728927_at) / RFU KRT8 (11758188_x_at) / Fold change /veh KRT8 (11758188_x_at) / RFU NKD1 (11759106_at) / Fold change /veh NKD1 (11759106_at) / RFU SRD5A1 (11742802_a_at) / Fold change /veh SRD5A1 (11742802_a_at) / RFU TPSAB1 /// TPSB2 (11721975_s_at) / Fold change /veh TPSAB1 /// TPSB2 (11721975_s_at) / RFU GSTM3 (11746129_a_at) / Fold change /veh GSTM3 (11746129_a_at) / RFU IL23R (11737362_x_at) / Fold change /veh IL23R (11737362_x_at) / RFU TMEM51 (11727254_a_at) / Fold change /veh TMEM51 (11727254_a_at) / RFU PIWIL2 (11732686_x_at) / Fold change /veh PIWIL2 (11732686_x_at) / RFU ORM1 (11744905_x_at) / Fold change /veh ORM1 (11744905_x_at) / RFU CCDC152 (11743942_at) / Fold change /veh CCDC152 (11743942_at) / RFU ECM1 (11717891_a_at) / Fold change /veh ECM1 (11717891_a_at) / RFU IL23R (11748794_a_at) / Fold change /veh IL23R (11748794_a_at) / RFU TNFAIP8L3 (11732012_x_at) / Fold change /veh TNFAIP8L3 (11732012_x_at) / RFU MBOAT4 (11741988_at) / Fold change /veh MBOAT4 (11741988_at) / RFU 11764193_at / Fold change /veh 11764193_at / RFU TMEM53 (11763286_at) / Fold change /veh TMEM53 (11763286_at) / RFU MAGEB2 (11727129_at) / Fold change /veh MAGEB2 (11727129_at) / RFU TMEM200A (11744735_a_at) / Fold change /veh TMEM200A (11744735_a_at) / RFU CCDC152 (11751479_a_at) / Fold change /veh CCDC152 (11751479_a_at) / RFU FAM211A (11726209_a_at) / Fold change /veh FAM211A (11726209_a_at) / RFU RGS16 (11746705_a_at) / Fold change /veh RGS16 (11746705_a_at) / RFU VCAN (11755009_s_at) / Fold change /veh VCAN (11755009_s_at) / RFU RHOB (11743442_s_at) / Fold change /veh RHOB (11743442_s_at) / RFU RGS16 (11720943_a_at) / Fold change /veh RGS16 (11720943_a_at) / RFU RGS16 (11720944_at) / Fold change /veh RGS16 (11720944_at) / RFU, VPS4B / Fold change vs veh, VPS4B / RFU, CREB1 / Fold change vs veh, CREB1 / RFU, DNAJC13 / Fold change vs veh, DNAJC13 / RFU, GNAQ / Fold change vs veh, GNAQ / RFU, CDK5R1 / Fold change vs veh, CDK5R1 / RFU, ZRANB3 / Fold change vs veh, ZRANB3 / RFU, CUL4A / Fold change vs veh, CUL4A / RFU, CCNY / Fold change vs veh, CCNY / RFU, UFL1 / Fold change vs veh, UFL1 / RFU, COG3 / Fold change vs veh, COG3 / RFU, DIAPH2 / Fold change vs veh, DIAPH2 / RFU, SKA2 / Fold change vs veh, SKA2 / RFU, AFF3 / Fold change vs veh, AFF3 / RFU, LMF1 / Fold change vs veh, LMF1 / RFU, IPO11 / Fold change vs veh, IPO11 / RFU, DFFB / Fold change vs veh, DFFB / RFU, FOXP1 / Fold change vs veh, FOXP1 / RFU, CARD8 / Fold change vs veh, CARD8 / RFU, STRN3 / Fold change vs veh, STRN3 / RFU, ADK / Fold change vs veh, ADK / RFU, RASSF2 / Fold change vs veh, RASSF2 / RFU, WIPF1 / Fold change vs veh, WIPF1 / RFU, LARP1B / Fold change vs veh, LARP1B / RFU, RASA1 / Fold change vs veh, RASA1 / RFU, RB1 / Fold change vs veh, RB1 / RFU, PPFIA1 / Fold change vs veh, PPFIA1 / RFU, MAT2A / Fold change vs veh, MAT2A / RFU, CCT5 / Fold change vs veh, CCT5 / RFU, WDR92 / Fold change vs veh, WDR92 / RFU, CUX1 / Fold change vs veh, CUX1 / RFU, TTC7A / Fold change vs veh, TTC7A / RFU, TMEM135 / Fold change vs veh, TMEM135 / RFU, DEPTOR / Fold change vs veh, DEPTOR / RFU, CPM / Fold change vs veh, CPM / RFU, DNAJB6 / Fold change vs veh, DNAJB6 / RFU, CACNA2D3 / Fold change vs veh, CACNA2D3 / RFU, DTX4 / Fold change vs veh, DTX4 / RFU, TFCP2 / Fold change vs veh, TFCP2 / RFU, GMCL1 /// GMCL1P1 / Fold change vs veh, GMCL1 /// GMCL1P1 / RFU, AEBP2 / Fold change vs veh, AEBP2 / RFU, SNHG1 /// SNORD22 /// SNORD25 /// SNORD26 /// SNORD27 /// SNORD28 /// SNORD29 /// SNORD31 / Fold change vs veh, SNHG1 /// SNORD22 /// SNORD25 /// SNORD26 /// SNORD27 /// SNORD28 /// SNORD29 /// SNORD31 / Fold change (Aza/veh), C12orf56 (ProbeSet 11735607_a_at) / Fold change (ACY-1035/veh), C12orf56 (ProbeSet 11735607_a_at) / Fold change (Aza/veh), FGFR1OP (ProbeSet 11751329_s_at) / Fold change (ACY-1035/veh), FGFR1OP (ProbeSet 11751329_s_at) / Fold change (Aza/veh), VPS36 (ProbeSet 11739960_a_at) / Fold change (ACY-1035/veh), VPS36 (ProbeSet 11739960_a_at) / RFU SYPL1 (11715823_x_at) / Fold change /veh SYPL1 (11715823_x_at) / RFU IGFBP7 (11715501_s_at) / Fold change /veh IGFBP7 (11715501_s_at) / RFU REEP3 (11722064_at) / Fold change /veh REEP3 (11722064_at) / RFU IGLL1 (11728026_x_at) / Fold change /veh IGLL1 (11728026_x_at): dose or concentration left out as unconfirmed
Settings: MV-4-11 cells, 48 hours

Structure (SMILES): Nc1ncn([C@@H]2O[C@H](CO)[C@@H](O)[C@H]2O)c(=O)n1 [azacitidine]
- Fold change /veh PRB3 (11715151_x_at): 0.94
